Assays:
Test in all cases: Greenhouse post-emergence weed control, percent injury vs untreated control
Format in all cases: in vivo
[1] = tested on: Avena fatua (AVEFA); conditions: 480 h, 20 DAT, 1% MSO
[2] = tested on: Amaranthus tuberculatus (AMATU); conditions: 480 h, 20 DAT
[3] = tested on: Abutilon theophrasti (ABUTH); conditions: 480 h, 20 DAT
[4] = tested on: Amaranthus Palmeri (AMAPA); conditions: 480 h, 20 DAT
[5] = tested on: Hordeum vulgare (HORVS); conditions: 480 h, 20 DAT
[6] = 50 g ai/ha, read-out: Solo Glufosinate % activity
[7] = 200 g ai/ha, read-out: Solo Glufosinate % activity
[8] = 0.9 g ai/ha, read-out: Solo epyrifenacil % activity

`CP(=O)(O)CCC(N)C(=O)O` (racemic) [Glufosinate, (2RS)-2-amino-4-[hydroxy(methyl)phosphinoyl]butyric acid] was tested, and the inhibition at 50 g/ha [1, 6] was 10%, the inhibition at 50 g/ha [2, 6] was 10% and the inhibition at 100 g/ha ([2]; 100 g ai/ha, read-out: Solo Glufosinate % activity) was 10%. It also gave an inhibition at 200 g/ha [2, 7] of 70%, an inhibition at 200 g/ha [3, 7] of 10% and an inhibition at 200 g/ha ([4]; 200 g ai/ha, Table 5, read-out: Solo Glufosinate % activity) of 75%. It also gave an inhibition at 200 g/ha [5, 7] of 25%.
In the case of `CCOC(=O)COc1ncccc1Oc1cc(-n2c(=O)cc(C(F)(F)F)n(C)c2=O)c(F)cc1Cl` [epyrifenacil, Acetic acid, 2-[[3-[2-chloro-5-[3,6-dihydro-3-methyl-2,6-dioxo-4-(trifluoromethyl)-1(2H)-pyrimidinyl]-4-fluorophenoxy]-2-pyridinyl]oxy]-, ethyl ester], the inhibition at 0.9 g/ha [1, 8] is reported as 15%, the inhibition at 0.9 g/ha ([2]; 0.9 g ai/ha, Table 2, read-out: Solo epyrifenacil % activity) is reported as 75% and the inhibition at 0.1 g/ha ([3]; 0.1 g ai/ha, read-out: Solo epyrifenacil % activity) is reported as 25%. For the same molecule, the inhibition at 0.3 g/ha ([4]; 0.3 g ai/ha, read-out: Solo epyrifenacil % activity) was 15%, the inhibition at 0.9 g/ha [4, 8] was 20% and the inhibition at 0.9 g/ha [5, 8] was 10%.

Source: patent US12568968B2, “Herbicide combinations comprising glufosinate and epyrifencacil” (BASF SE, priority 2020, dated 2026)
